# Measurements taken from patent US20230312752A1 (Brown University, priority 2021, published 2023).
# “Also recorded” adds a separate entry of the source. Counter-ions that a name gives are not always drawn. Like-named read-outs stand apart in the source and are kept apart here.
# How the values were obtained:
# [1] = system: pseudovirus with the G614 S protein; type: cell-based, SARS-CoV-2
# [2] = system: pseudovirus with the ancestral G614 S protein; type: cell-based, SARS-CoV-2
# [3] = system: influenza and other viral infections; conditions: cited from earlier work
# Chitinase 1 (CHIT1) = Chitinase 1 (CHIT1) (Homo sapiens, UniProt Q13231); conditions: cited from earlier work
# Sequence of Chitinase 1 (CHIT1) (Q13231 22-466): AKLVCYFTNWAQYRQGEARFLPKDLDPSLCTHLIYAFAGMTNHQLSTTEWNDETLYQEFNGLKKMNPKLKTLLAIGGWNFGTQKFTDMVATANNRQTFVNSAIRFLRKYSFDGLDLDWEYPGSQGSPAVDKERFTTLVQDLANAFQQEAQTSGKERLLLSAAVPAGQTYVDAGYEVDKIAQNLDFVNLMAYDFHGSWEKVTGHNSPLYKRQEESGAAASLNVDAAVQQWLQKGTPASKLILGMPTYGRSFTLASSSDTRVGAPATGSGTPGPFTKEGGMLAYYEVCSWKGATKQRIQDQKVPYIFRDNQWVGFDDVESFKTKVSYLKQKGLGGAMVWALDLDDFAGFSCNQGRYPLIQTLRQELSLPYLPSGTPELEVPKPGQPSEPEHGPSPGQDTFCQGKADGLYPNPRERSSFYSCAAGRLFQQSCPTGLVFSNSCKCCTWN
# ERK and AKT = type: cell-based, human
# TMPRSS2, CTSL and FURIN = type: cell-based, human
# ACE2 [4] = type: cell-based, human
# CDK1 = CDK1 (Homo sapiens, UniProt P06493); conditions: cited from earlier work
# Sequence of CDK1 (P06493 whole entry, species assumed): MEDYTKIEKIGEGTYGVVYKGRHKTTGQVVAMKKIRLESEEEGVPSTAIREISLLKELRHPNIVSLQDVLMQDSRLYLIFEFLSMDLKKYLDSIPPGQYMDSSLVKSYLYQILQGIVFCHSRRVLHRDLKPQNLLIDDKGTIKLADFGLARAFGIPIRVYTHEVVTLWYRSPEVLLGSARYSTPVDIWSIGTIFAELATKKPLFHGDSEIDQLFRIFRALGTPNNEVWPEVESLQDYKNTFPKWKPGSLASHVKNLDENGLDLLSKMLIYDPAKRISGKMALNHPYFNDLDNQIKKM
# Sequence of CDK1 (P14635 whole entry partner, species assumed): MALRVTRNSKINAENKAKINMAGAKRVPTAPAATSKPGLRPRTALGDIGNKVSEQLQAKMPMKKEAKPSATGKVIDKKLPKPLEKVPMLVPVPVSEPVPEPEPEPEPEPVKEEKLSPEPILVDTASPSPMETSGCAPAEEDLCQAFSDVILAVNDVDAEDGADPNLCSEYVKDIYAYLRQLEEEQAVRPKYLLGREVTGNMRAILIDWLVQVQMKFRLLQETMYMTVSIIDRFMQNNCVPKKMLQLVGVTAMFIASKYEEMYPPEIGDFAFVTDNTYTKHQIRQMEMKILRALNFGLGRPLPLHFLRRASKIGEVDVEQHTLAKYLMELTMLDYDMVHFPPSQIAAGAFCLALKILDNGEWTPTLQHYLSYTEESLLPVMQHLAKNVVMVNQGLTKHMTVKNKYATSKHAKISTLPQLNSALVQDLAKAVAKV
# CDK4 = CDK4 (Homo sapiens, UniProt P11802); conditions: cited from earlier work
# CDK6 = CDK6 (Homo sapiens, UniProt Q00534); design: key to the marks not given beside the values; conditions: cited from earlier work
# Sequence of CDK6 (Q00534 whole entry): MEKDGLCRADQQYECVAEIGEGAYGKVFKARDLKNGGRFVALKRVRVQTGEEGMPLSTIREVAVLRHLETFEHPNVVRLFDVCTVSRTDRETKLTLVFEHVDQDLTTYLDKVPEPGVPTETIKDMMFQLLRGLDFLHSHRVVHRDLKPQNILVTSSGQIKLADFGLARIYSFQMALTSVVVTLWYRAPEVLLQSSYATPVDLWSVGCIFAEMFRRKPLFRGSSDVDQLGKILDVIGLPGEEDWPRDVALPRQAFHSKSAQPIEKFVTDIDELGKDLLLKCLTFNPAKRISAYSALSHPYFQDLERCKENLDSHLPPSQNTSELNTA
# Sequence of CDK6 (P30281 whole entry, further chain): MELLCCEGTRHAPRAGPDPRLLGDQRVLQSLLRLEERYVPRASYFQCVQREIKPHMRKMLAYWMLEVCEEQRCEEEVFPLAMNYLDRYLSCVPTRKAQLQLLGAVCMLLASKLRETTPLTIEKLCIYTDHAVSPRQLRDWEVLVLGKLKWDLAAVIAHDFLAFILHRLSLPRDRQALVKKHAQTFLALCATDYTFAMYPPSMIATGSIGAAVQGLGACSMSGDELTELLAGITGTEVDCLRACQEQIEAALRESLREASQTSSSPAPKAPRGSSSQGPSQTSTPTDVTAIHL
# CDK2 = CDK2 (Homo sapiens, UniProt P24941); conditions: cited from earlier work
# CDK3 = CDK3 (Homo sapiens, UniProt Q00526); conditions: cited from earlier work
# CDK7 = CDK7 (Homo sapiens, UniProt P50613); conditions: cited from earlier work
# Sequence of CDK7 (P50613 whole entry, canonical isoform): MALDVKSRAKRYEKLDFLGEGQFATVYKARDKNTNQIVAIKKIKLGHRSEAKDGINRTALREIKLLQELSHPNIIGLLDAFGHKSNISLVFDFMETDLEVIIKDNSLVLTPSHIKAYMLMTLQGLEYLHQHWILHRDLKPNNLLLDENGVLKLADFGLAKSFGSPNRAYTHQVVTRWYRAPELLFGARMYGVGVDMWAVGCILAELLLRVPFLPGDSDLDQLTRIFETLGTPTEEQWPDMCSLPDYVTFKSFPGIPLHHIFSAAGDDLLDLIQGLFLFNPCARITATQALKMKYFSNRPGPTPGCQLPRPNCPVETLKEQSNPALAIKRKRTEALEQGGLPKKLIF
# Sequence of CDK7 (P51946 whole entry, further chain, canonical isoform): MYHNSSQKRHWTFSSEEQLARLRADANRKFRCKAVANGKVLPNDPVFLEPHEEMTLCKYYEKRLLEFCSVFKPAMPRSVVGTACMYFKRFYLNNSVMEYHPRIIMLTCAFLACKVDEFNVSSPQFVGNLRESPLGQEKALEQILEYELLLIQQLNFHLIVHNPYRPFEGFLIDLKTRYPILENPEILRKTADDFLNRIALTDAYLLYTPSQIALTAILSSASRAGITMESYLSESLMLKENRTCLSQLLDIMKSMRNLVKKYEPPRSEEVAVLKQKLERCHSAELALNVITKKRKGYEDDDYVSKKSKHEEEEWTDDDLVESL
# Sequence of CDK7 (P51948 whole entry, further chain, canonical isoform): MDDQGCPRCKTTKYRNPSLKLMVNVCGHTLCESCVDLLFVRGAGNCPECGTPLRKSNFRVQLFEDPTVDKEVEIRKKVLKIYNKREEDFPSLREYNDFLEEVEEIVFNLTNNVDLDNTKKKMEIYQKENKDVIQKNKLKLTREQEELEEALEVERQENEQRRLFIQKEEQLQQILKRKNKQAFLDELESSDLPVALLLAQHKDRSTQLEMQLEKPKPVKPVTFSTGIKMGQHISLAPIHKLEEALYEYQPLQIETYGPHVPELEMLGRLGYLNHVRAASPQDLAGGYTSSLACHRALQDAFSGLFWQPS
# CDK9 = CDK9 (Homo sapiens, UniProt P50750); design: key: + is used to indicate the potency of the inhibitor; ++++ > +++ > ++ > +; + is used to indicate the potency of the inhibitor; ++++ > +++ > ++ > +; + is used to indicate the potency of the inhibitor; ++++ > +++ > ++ > +; + is used to indicate the potency of the inhibitor; ++++ > +++ > ++ > +; ◯ refers to compounds with inhibitory effects on the related isoform, but without specific value; conditions: cited from earlier work
# Sequence of CDK9 (P50750 whole entry, canonical isoform): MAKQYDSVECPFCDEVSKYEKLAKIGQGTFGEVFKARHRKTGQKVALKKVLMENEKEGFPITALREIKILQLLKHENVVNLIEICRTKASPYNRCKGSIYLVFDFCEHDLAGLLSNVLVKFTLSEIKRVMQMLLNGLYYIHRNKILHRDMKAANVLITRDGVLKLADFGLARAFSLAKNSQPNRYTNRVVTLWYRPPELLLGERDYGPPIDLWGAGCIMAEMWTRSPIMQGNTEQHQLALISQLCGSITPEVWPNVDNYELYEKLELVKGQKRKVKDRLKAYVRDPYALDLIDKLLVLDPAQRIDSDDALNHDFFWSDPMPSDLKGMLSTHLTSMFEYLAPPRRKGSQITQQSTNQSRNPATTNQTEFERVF
# Sequence of CDK9 (O60563 whole entry, further chain, canonical isoform): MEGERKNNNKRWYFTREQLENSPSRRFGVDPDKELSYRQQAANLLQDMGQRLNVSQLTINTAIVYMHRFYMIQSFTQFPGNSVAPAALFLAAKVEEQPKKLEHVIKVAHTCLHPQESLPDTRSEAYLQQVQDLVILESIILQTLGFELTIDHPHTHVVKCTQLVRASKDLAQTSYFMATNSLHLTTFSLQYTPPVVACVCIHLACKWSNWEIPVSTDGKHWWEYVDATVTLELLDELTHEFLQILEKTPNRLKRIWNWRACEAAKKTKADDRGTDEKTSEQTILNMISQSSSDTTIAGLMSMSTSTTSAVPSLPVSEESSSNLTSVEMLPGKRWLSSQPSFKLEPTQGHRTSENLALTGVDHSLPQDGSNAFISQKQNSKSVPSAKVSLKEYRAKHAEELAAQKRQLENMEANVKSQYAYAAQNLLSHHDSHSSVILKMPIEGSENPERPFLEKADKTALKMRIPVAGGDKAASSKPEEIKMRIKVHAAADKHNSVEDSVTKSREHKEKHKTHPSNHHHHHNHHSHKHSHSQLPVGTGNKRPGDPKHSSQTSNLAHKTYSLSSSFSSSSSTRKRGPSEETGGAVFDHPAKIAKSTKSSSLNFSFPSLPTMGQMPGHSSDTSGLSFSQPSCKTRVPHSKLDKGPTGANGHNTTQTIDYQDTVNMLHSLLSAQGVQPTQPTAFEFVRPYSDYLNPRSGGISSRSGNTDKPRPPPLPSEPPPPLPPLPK
# CDK8 = CDK8 (Homo sapiens, UniProt P49336); design: key: + is used to indicate the potency of the inhibitor; ++++ > +++ > ++ > +; + is used to indicate the potency of the inhibitor; ++++ > +++ > ++ > +; + is used to indicate the potency of the inhibitor; ++++ > +++ > ++ > +; + is used to indicate the potency of the inhibitor; ++++ > +++ > ++ > +; ◯ refers to compounds with inhibitory effects on the related isoform, but without specific value; conditions: cited from earlier work
# Sequence of CDK8 (P24863 whole entry, canonical isoform): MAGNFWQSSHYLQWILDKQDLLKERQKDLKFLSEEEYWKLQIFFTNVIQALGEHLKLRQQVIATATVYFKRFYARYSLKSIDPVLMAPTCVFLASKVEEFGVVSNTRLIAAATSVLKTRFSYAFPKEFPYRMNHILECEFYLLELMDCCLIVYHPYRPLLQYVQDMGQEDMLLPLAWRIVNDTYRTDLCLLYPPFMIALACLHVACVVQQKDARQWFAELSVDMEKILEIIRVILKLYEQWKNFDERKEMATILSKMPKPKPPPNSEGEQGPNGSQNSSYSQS
# Sequence of CDK8 (P49336 whole entry, canonical isoform): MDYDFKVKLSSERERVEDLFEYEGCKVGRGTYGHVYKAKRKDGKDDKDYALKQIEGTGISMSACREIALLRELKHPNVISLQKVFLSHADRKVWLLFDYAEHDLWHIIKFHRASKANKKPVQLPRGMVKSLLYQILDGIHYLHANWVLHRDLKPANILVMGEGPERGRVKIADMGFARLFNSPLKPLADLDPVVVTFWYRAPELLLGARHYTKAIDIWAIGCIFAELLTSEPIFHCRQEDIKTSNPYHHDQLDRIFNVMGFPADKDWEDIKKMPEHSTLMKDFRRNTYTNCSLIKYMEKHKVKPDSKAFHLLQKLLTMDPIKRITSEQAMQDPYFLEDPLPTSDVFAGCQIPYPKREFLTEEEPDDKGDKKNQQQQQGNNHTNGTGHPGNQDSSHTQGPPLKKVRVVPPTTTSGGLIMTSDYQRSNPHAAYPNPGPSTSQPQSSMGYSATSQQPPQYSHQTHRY
# human and mouse CHI3L1 = assay: Ligand binding affinity of FRG by ELISA; conditions: both human and mouse CHI3L1
# Method: The murine monoclonal anti-CHI3L1 antibody (FRG) was generated using peptide antigen (amino acid 223-234 of human CHI3L1) as immunogen through Abmart Inc (Berkeley Heights, NJ). […] HEK-293T cells were transfected with the FRG construct using Lipofectamine™ 3000 (Invitrogen, #L3000015). Supernatant was collected for 7 days, and the antibody was purified using a protein A column (ThermoFisher scientific, #89960). Ligand binding affinity and sensitivity were assessed using ELISA techniques.
# [5] = system: pseudoviruses with delta S proteins; type: cell-based, SARS-CoV-2
# [6] = system: pseudovirus containing the S protein (D614 and G614 variants); type: cell-based; conditions: Calu-3 cells, rCHI3L1 250 ng/mL 24 hours, GFP by flow cytometry
# ACE2 [7] = assay: Immunocytochemical evaluation of ACE2 in Calu-3 cells; type: cell-based, human; conditions: at baseline and or after the administration of rCHI3L1; ICC, FIG. 18
# [8] = Calu-3 cells, 24 hours, FRG or KSM 250 ng/mL, RT-PCR
molecule,measurement,setting,value
"C[C@H]1O[C@H](O[C@H]2[C@H](O)[C@@H](O)[C@@H](O)[C@H](O)[C@@H]2O)[C@@H](N)C[C@@H]1NC(=N)C(=O)O [Kasugamycin, 2-amino-2-[(2R,3S,5S,6R)-5-amino-2-methyl-6-[(2R,3S,5S,6S)-2,3,4,5,6-pentahydroxycyclohexyl]oxyoxan-3-yl]iminoacetic acid]",pseudovirus uptake when exogenous CHI3L1 was not administered,[1],diminished
same,rCHI3L1-augmented pseudovirus uptake,[2],abrogated
same,influenza and other viral infections,[3],inhibit
same,anti-Chitinase 1 (CHIT1) activities,Chitinase 1 (CHIT1),strong
same,CHI3L1 stimulated MAPK and AKT activation,ERK and AKT,abrogated
same,"basal and rhCHI3L1-stimulated expression of TMPRSS2, CTSL and FURIN","TMPRSS2, CTSL and FURIN",potently decreased
same,ability of rhCHI3L1 to stimulate ACE2 mRNA accumulation,ACE2 [4],potently inhibited; also recorded: potently ameliorated
same,levels of basal ACE2 expression,ACE2 [4],diminished
"CN1CC[C@H](c2c(O)cc(O)c3c(=O)cc(-c4ccccc4Cl)oc23)[C@H](O)C1 [Flavopiridol HCl, Flavopiridol Hydrochloride]",Inhibitory potency CDK1,CDK1,+++
same,Inhibitory potency CDK4,CDK4,+++
same,Inhibitory potency CDK6,CDK6,+++
same,Inhibitory potency CDK2,CDK2,+++
same,Inhibitory potency CDK3,CDK3,+
same,Inhibitory potency CDK7,CDK7,+
LY2857785,Inhibitory potency CDK9,CDK9,+++
same,Inhibitory potency CDK7,CDK7,+
same,Inhibitory potency CDK8,CDK8,+++
"FRG: murine monoclonal anti-CHI3L1 antibody raised against amino acid 223-234 of human CHI3L1; heavy chain SEQ ID NO: 13, light chain SEQ ID NO: 14 (antibody, V domains shown) VH: QIQLVQSGPELKKPGETVKISCKASGYTFTNYGMNWVKQAPGKGLKWMGWINTYTGEPTYADDFKGRFAFSLETSASTAYLQINNLRNEDMSTYFCARLGYGKFYVMDYWGQGTSVTVSS VL: DVVMTQTPLSLPVSLGDQASISCRSSQSLVHSNGNTYLHWYLQKPGQSPKLLIYKVSNRFSGVPDRFSGSGSGTDFTLKISRVEAEDLGVYFCSQSTHVTWTFGGGTKLEIK",Kd,human and mouse CHI3L1,~1.1 nM
same,delta pseudovirus infection,[5],abrogated
same,pseudovirus uptake when exogenous CHI3L1 was not administered,[1],diminished
same,pseudovirus uptake when exogenous rCHI3L1 was not administered,[2],diminished
same,rCHI3L1-augmented pseudovirus uptake,[2],abrogated
same,CHI3L1 effect on cellular integration of S proteins,[6],abrogated
same,"basal and rhCHI3L1-stimulated expression of TMPRSS2, CTSL and FURIN","TMPRSS2, CTSL and FURIN; [8]",potently decreased
same,levels of basal ACE2 expression,ACE2 [4]; [8],modestly diminished
same,ability of rhCHI3L1 to stimulate ACE2 mRNA accumulation,"ACE2 [4]; Calu-3 cells, rhCHI3L1 24 hours, FRG or KSM 250 ng/mL, RT-PCR",potently inhibited; also recorded: potently ameliorated
same,expression of ACE2,ACE2 [7],abrogated
